Data as given in patent US20240156755A1, “USE OF RIP1 INHIBITOR OR MLKL INHIBITOR FOR TREATING OR PREVENTING HEREDITARY RETINAL DYSTROPHY” (TZU CHI UNIVERSITY, priority 2022, published 2024).
Entries after “also recorded” stand apart in the source; their conditions may differ.

Columns and labels:
[1] = system: POMGNT1 knockout human RPE cells; experiment: Trans-epithelial electrical resistance (TEER) of RPE monolayers; type: cell-based; conditions: transwell culture
Protocol: The RPE is a polarized epithelial monolayer which lies between the photoreceptors and the choroid. The RPE is essential to keep neural retinal healthy by maintenance of many important functions including light absorption, trans-epithelial transport, phagocytosis, and secretion of growth factors. The feature of healthy RPE is the generation of a trans-epithelial electrical resistance by specific tight junctions between epithelial cells. Trans-epithelial electrical resistance (TEER) was determined in RPE monolayers in WT and POMGNT1 knockout cells using Millicell-ERS Voltmeter (MERS00002, EMD Millipore) with transwell culture to evaluate the cell monolayer integrity.
POMGNT1 knockout human RPE cell were treated with RIPA-56, a potent, selective RIP1 inhibitor or with GW806742X, a MLKL inhibitor.

[2] = system: POMGNT1 knockout human RPE cells; experiment: Immunoblotting of autophagy-related proteins and necroptosis markers; type: cell-based
[3] = system: Pomgnt1^L120R/L120R mice; experiment: Scotopic ERG after treatment of Pomgnt1^L120R/L120R mice; type: in vivo; conditions: 6-month-old mice, 3 months after injection; compared with AAV8-GFP treated group; RIPA-56 10 mg/Kg twice a week IP; AAV 1 μL 1×10^9 vg subretinal
Protocol: To evaluate retinal function in vivo, ERG was recorded with various light stimulus intensities under dark-adapted scotopic condition. Scotopic ERG records rod photoreceptor (a-wave), signal from rod to rod bipolar cell (b-wave), and retinal pigment epithelium (c-wave). […] This reduction in ERG a-, b, and c-wave amplitude indicated the function of rod photoreceptor, rod bipolar cells post-synaptic signal and RPE were greatly affected in Pomgnt1^L120R/L120R mouse retina.

## CN(c1ccc(NC(=O)Nc2ccc(OC(F)(F)F)cc2)cc1)c1ccnc(Nc2cccc(S(N)(=O)=O)c2)n1 [GW806742X]
[1]
  TEER level: significant improvement

## CCC(C)(C)C(=O)N(O)Cc1ccccc1 [RIPA-56]
[1]
  TEER level: significant improvement; also recorded: improve
[2]
  expression of beclin1, p62 and LC3b: significantly decrease
  phospho-RIP3 and phosphor-MLKL: inhibit
[3]
  scotopic ERG a-, b-, and c-wave amplitudes: significantly improved
